Results on four compounds are retold here after publication PMC7827406, “Structure–Activity Relationship (SAR) Study of Spautin-1 to Entail the Discovery of Novel NEK4 Inhibitors” (International Journal of Molecular Sciences, 2021).

Where two headings read alike, the source gives them in different places.

What all share (test): biochemical
What all share (design): Eurofins KinaseProfiler full panel at Km ATP, residual kinase activity (%) relative to DMSO

One assay concerns the target T1, EphB4(h) (Homo sapiens, UniProt P54760).
T1 sequence (P54760 1-987): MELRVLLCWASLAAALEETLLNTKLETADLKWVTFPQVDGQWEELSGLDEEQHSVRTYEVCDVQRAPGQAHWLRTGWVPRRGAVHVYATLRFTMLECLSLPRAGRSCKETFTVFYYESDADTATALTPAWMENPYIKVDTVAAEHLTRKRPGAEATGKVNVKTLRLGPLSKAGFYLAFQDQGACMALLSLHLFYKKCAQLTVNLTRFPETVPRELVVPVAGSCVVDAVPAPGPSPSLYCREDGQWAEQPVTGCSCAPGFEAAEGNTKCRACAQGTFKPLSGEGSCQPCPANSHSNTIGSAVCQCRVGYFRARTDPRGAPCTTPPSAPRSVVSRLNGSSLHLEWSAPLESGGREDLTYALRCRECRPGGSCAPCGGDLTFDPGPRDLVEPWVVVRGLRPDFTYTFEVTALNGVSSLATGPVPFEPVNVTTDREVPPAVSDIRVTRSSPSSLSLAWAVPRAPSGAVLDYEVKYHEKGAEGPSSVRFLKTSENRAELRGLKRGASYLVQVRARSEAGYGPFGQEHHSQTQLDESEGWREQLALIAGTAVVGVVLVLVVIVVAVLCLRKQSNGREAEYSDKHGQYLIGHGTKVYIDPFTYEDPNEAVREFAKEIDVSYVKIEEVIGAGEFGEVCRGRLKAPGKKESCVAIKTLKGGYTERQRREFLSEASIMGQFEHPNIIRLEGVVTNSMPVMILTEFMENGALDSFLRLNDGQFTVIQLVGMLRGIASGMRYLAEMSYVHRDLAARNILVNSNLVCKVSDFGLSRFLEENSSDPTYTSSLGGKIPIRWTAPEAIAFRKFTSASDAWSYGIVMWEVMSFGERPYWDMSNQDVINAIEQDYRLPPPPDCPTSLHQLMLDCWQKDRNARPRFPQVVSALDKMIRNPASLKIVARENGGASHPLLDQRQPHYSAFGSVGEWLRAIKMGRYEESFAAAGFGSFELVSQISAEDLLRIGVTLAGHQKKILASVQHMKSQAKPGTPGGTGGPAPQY
In short, it runs like this: (§1)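 Compounds screened at 10 µM in radiometric kinase activity assays at Km ATP, reported as remaining kinase activity (%). A KINOMEscan competition-binding screen at 10 µM measured DNA-tagged kinase retained on immobilized active-site ligand by qPCR.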

For another assay, the target named is T2, PIP4K2a(h) (Homo sapiens, UniProt P48426).
T2 sequence (P48426 1-406): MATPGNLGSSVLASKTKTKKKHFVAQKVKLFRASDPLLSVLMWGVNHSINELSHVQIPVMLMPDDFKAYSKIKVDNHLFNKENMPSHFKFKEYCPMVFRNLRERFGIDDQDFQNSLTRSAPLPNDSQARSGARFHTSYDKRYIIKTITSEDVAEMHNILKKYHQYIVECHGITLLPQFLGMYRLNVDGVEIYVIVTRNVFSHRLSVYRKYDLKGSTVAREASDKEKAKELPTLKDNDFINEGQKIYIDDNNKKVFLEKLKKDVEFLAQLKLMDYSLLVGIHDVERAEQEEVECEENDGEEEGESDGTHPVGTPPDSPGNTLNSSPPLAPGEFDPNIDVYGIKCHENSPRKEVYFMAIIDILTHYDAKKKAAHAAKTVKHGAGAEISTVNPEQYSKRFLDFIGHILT
In short, it runs like this: as §1

Assay [1] concerns the target T3, PI3 Kinase (p110a/p85a)(m) (Mus musculus, UniProt P42337).
T3 construct: gene Pik3ca
In short, it runs like this: as §1

In the next assay the target is PAK6(h) (Homo sapiens, UniProt Q9NQU5). In short, it runs like this:
as §1

Another assay has as its target CDK13/cyclinK(h) (Homo sapiens, UniProt Q14004). In short, it runs like this:
as §1

A further assay has as its target SRMS(h) (Homo sapiens, UniProt Q9H3Y6). In short, it runs like this:
as §1

Where [2] appears, read: read-out: Residual activity (%) Spautin-1 5aa.
Setting [3] is: read-out: Residual activity (%) 5as.
Where [4] appears, read: read-out: Residual activity (%) 5at.
The mark [5] stands for this setting: read-out: Residual activity (%) 5ay.

T3 sequence (P42337 whole entry): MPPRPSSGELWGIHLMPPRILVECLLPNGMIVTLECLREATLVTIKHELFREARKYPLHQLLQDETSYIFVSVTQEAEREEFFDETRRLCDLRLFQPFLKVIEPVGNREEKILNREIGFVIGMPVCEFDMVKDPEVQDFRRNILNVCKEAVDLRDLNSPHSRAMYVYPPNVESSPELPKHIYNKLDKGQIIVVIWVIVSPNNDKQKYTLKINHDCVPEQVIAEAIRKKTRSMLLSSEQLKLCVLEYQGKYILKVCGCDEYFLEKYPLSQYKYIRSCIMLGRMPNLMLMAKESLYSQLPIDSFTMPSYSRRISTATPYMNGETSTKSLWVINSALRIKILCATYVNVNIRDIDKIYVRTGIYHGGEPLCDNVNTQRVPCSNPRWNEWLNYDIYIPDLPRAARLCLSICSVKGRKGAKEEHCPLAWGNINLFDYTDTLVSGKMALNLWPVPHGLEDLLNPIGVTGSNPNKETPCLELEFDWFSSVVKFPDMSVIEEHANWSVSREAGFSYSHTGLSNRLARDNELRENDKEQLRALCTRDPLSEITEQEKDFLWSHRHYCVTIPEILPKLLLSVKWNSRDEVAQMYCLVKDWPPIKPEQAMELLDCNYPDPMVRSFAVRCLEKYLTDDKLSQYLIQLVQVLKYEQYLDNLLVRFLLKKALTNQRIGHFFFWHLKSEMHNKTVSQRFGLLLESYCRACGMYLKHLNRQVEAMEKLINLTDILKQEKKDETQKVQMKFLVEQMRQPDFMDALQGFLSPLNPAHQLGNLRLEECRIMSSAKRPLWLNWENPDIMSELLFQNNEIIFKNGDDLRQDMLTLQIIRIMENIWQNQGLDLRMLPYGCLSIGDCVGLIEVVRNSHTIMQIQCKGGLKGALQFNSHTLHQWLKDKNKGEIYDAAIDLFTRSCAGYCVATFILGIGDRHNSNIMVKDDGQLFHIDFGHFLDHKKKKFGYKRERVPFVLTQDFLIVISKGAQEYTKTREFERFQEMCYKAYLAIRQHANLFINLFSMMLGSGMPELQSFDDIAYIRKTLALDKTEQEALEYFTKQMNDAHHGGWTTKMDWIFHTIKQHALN
T3 sequence (P26450 whole entry partner): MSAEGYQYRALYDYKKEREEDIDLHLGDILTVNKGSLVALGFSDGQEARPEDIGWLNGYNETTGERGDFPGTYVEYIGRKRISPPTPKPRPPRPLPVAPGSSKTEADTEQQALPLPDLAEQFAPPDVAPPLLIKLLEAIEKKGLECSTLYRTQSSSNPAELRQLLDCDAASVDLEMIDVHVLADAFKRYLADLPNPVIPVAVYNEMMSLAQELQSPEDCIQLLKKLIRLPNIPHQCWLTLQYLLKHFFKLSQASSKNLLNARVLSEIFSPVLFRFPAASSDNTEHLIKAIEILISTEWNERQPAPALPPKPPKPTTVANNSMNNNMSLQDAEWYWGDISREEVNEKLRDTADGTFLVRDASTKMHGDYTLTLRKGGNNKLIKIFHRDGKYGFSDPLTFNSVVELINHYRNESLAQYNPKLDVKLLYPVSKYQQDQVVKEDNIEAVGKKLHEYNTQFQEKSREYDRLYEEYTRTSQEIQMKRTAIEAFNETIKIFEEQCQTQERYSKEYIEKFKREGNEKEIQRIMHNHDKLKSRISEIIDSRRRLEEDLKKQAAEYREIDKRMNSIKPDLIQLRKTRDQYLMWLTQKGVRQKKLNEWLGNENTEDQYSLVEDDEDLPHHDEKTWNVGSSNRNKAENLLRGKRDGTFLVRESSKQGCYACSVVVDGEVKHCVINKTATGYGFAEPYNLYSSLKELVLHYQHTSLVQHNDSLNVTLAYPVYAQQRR
Chain of CDK13/cyclinK(h) (Q14004 whole entry): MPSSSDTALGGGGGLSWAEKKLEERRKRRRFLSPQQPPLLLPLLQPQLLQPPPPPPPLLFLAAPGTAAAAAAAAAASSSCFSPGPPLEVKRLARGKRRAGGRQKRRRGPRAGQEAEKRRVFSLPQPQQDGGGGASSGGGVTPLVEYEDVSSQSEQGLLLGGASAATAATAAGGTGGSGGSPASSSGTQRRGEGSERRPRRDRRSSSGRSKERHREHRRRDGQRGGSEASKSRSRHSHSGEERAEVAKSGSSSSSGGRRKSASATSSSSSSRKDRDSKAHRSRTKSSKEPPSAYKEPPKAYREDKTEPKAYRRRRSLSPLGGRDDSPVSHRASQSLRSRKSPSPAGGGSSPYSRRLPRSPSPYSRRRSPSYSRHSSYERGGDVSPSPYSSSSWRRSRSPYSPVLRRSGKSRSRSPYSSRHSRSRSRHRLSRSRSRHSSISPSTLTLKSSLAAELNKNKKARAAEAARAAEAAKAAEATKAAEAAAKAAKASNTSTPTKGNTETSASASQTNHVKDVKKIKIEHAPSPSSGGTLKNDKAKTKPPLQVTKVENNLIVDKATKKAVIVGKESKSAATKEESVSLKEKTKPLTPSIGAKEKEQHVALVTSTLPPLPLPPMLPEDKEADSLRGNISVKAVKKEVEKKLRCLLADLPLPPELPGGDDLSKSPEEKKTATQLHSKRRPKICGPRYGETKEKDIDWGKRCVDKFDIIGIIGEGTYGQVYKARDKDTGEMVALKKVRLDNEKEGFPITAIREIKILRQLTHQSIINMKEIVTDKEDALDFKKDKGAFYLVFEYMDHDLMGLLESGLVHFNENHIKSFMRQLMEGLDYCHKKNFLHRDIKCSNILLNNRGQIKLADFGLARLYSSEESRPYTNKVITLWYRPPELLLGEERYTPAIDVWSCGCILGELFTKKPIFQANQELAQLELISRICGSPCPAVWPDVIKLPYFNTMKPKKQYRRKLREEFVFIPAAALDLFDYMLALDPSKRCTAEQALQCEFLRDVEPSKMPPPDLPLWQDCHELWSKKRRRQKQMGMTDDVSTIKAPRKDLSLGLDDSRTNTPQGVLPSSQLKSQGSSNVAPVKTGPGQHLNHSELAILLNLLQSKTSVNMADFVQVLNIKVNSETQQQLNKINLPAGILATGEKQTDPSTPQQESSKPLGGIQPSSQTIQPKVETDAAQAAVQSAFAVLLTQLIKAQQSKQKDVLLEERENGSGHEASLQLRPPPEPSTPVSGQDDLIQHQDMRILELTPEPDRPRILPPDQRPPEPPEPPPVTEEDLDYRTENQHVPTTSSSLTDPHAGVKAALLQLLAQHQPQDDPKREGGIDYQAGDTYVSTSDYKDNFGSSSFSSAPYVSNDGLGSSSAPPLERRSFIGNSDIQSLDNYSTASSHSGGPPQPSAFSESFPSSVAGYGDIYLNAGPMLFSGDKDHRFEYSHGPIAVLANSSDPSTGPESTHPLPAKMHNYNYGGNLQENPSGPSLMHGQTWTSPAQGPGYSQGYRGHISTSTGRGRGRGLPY
Chain of CDK13/cyclinK(h) (O75909 whole entry partner): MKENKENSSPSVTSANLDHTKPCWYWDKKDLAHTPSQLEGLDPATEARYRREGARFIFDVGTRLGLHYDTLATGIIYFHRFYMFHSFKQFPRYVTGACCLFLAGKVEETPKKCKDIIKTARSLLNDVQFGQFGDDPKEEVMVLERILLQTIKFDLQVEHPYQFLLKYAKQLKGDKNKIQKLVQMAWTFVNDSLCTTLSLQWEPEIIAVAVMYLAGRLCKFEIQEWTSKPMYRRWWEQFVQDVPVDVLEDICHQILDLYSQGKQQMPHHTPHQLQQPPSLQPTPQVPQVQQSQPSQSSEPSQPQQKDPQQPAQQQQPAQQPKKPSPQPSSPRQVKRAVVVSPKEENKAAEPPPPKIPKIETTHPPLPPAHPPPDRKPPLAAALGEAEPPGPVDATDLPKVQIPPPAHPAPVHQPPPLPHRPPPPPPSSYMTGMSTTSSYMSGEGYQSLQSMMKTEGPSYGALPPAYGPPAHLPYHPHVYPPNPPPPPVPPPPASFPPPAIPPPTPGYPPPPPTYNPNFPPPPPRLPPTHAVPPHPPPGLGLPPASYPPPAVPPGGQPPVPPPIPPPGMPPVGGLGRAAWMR
Chain of PAK6(h) (Q9NQU5 whole entry): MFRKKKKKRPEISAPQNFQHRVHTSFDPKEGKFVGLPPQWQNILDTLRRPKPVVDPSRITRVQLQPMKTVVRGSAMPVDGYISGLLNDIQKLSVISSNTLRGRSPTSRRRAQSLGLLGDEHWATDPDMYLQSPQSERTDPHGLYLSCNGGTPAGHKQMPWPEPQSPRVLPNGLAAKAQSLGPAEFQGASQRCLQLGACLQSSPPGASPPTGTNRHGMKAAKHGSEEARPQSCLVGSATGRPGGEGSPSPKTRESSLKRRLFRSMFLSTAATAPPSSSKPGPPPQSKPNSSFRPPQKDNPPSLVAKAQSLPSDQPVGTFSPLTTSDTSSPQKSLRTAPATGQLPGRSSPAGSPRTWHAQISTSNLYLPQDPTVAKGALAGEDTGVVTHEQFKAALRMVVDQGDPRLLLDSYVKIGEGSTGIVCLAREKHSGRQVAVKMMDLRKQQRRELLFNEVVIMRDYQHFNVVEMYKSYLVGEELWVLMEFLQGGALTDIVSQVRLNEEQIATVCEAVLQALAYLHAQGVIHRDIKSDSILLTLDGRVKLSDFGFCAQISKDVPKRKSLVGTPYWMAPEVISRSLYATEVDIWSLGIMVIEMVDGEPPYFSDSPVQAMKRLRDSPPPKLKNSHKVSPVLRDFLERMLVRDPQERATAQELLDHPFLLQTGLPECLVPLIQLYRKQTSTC
Chain of SRMS(h) (Q9H3Y6 whole entry): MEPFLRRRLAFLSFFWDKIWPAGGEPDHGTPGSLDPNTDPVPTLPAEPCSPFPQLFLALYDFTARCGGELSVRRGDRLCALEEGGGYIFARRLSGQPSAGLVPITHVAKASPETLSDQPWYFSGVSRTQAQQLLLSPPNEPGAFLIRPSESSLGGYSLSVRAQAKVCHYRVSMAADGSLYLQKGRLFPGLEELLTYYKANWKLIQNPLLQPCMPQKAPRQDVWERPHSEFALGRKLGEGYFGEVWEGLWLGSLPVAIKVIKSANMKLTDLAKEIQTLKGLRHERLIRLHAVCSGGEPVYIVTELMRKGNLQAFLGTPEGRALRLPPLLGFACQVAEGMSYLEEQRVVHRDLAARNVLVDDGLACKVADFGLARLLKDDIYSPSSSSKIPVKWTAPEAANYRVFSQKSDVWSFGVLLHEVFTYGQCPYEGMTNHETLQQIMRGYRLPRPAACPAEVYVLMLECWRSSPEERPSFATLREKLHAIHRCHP

For the compound `Fc1ccc(CNc2ncnc3ccc(F)cc23)cc1` [5aa, 6-Fluoro-N-(4-fluorobenzyl)-4-Quinazolinamine], the remaining activity at 10 µM on EphB4(h) (setting [2]) worked out at 68%; on PIP4K2a(h) (setting [2]) it was 93%; in assay [1] (setting [2]), 86%; on PAK6(h) (setting [2]), 92%; on CDK13/cyclinK(h) (setting [2]), 75%; at SRMS(h) (setting [2]), 86%.

Consider `Fc1ccc(CCNc2ncnc3ccc(F)cc23)cc1` [5as, 6-Fluoro-N-[2-(4-Fluorophenyl)Ethyl]-4-Quinazolinamine], for which the remaining activity at 10 µM on EphB4(h) (setting [3]) came out at 59%; at PIP4K2a(h) (setting [3]), 96%; in assay [1] (setting [3]) it was 83%; at PAK6(h) (setting [3]) it was 84%; on CDK13/cyclinK(h) (setting [3]), 35%; at SRMS(h) (setting [3]), 84%.

With `Fc1ccc2ncnc(NCCc3ccc(Cl)cc3)c2c1` [5at, N-[2-(4-Chlorophenyl)Ethyl]-6-Fluoro-4-Quinazolinamine], the remaining activity at 10 µM at EphB4(h) (setting [4]) is 68%; on PIP4K2a(h) (setting [4]), 92%; in assay [1] (setting [4]), 82%; at PAK6(h) (setting [4]), 92%; on CDK13/cyclinK(h) (setting [4]), 114%; on SRMS(h) (setting [4]) it was 71%.

For `COc1ccc2ncnc(Nc3cccc(F)c3)c2c1` [5ay, N-(3-Fluorophenyl)-6-Methoxy-4-Quinazolinamine], the remaining activity at 10 µM amounted to 63% on EphB4(h) (setting [5]); 102% at PIP4K2a(h) (setting [5]); 84% in assay [1] (setting [5]); 86% at PAK6(h) (setting [5]); 105% on CDK13/cyclinK(h) (setting [5]); 78% at SRMS(h) (setting [5]).
